Laboratory results as given in patent US20170304286A1 (LAUNX BIOMEDICAL CO., LTD., priority 2014, published 2017).
Where two headings read alike, the source gives them in different places.

Assays:
Type in all cases: cell-based
[1] = tested on: T24; test: WST-1 cell viability, bladder cancer cell line T24; settings: Homo sapiens
Procedure: (§1) The cell numbers were counted and reseed as 2×10^6 in culture plate/flask. Then, the culture medium were added to a volume of 10 ml, and the cells were cultured for 2-3 days. Then, the cells were suspended for loading into 96-well plates. The number of cells was 3000 and the volume of the culture medium was 100 μl each well.
Removing the original culture medium from 96-well plate. Then add 100 μl of commercially drug at a concentration of 10 μM per well. After 72 hours, add the diluted WST-1 reagent to the well with 100 μl/well, and the diluted WST-1 reagent was acquired from the dilution of 9:1 medium and WST-1 stock reagent. Finally, the total volume of each well was 200 μl/well. […] Detecting and calculate the survival rate of each cancer cells with an ELISA reader at OD450 nm.

[2] = tested on: hepatic cancer cells; test: Summary of cell viability, hepatic cancer; settings: 72 h, read-out: Inhibitory effect
Procedure: (§2) Removing the original culture medium from 96-well plate. Then add 100 μl of commercially drug at a concentration of 10 μM per well. After 72 hours, add the diluted WST-1 reagent to the well with 100 μl/well, and the diluted WST-1 reagent was acquired from the dilution of 9:1 medium and WST-1 stock reagent. Finally, the total volume of each well was 200 μl/well. Culture the 96-well plate at 37° C. for 30 to 90 minutes. Detecting and calculate the survival rate of each cancer cells with an ELISA reader at OD450 nm.

[3] = tested on: MKN-45 (Gastric Adenocarcinoma); test: WST-1 cell viability, gastric cancer cell line MKN-45; settings: Homo sapiens
Procedure: as §1, §2

[4] = tested on: H1650 (lung adenocarcinoma); test: WST-1 cell viability, lung cancer cell line H1650; settings: Homo sapiens
Procedure: as §1, §2

[5] = tested on: HeLa (CervixAdenocarcinoma); test: WST-1 cell viability, cervical cancer cell line HeLa; settings: Homo sapiens, 72 h
Procedure: as §1, §2

[6] = tested on: pancreatic cancer cells; test: Summary of cell viability, pancreatic cancer; settings: 72 h, read-out: Inhibitory effect
Procedure: as §2

[7] = tested on: U2OS; test: WST-1 cell viability, osteosarcoma cell line U2OS; settings: Homo sapiens, 72 h
Procedure: as §1, §2

[8] = tested on: ovarian cancer cells; test: Summary of cell viability, ovarian cancer; settings: 72 h, read-out: Inhibitory effect
Procedure: as §2

[9] = tested on: breast cancer cells; test: Summary of cell viability, breast cancer; settings: 72 h, read-out: Inhibitory effect
Procedure: as §2

[10] = tested on: BxPC-3; test: WST-1 cell viability, pancreatic cancer cell line BxPC-3; settings: Homo sapiens
Procedure: as §1, §2

[11] = tested on: AsPC-1; test: WST-1 cell viability, pancreatic cancer cell line AsPC-1; settings: Homo sapiens
Procedure: as §1, §2

[12] = tested on: Hep3B (hepatocellular carcinoma); test: WST-1 cell viability, hepatic cancer cell line Hep3B; settings: Homo sapiens, 72 h
Procedure: as §1, §2

[13] = tested on: MCF7 (Mammary Gland, Adenocarcinoma); test: WST-1 cell viability, breast cancer cell line MCF7; settings: Homo sapiens
Procedure: as §1, §2

[14] = tested on: various cancer cells; test: Inhibitory effect on various cancer cells (cell viability); settings: Table 18, FIG. 1
Description: Subculture the different types of cancer cells. The cancer cells includes lung cancer, gastric cancer, hepatic cancer, colon cancer, skin cancer, cervical cancer, prostate cancer, bladder cancer, breast cancer, leukemia, pancreatic cancer, ovarian cancer, tongue cancer, osteosarcoma, and renal cancer. The normal cells used in the control group included kidney cells (HEK293), canine fibroblast cell line HFW, and human bronchial epithelial cell line BEAS-2B. Removing the original culture medium from 96-well plate. […] After 72 hours, add the diluted WST-1 reagent to the well with 100 μl/well, and the diluted WST-1 reagent was acquired from the dilution of 9:1 medium and WST-1 stock reagent. […] Culture the 96-well plate at 37° C. for 30 to 90 minutes. Detecting and calculate the survival rate of each cancer cells with an ELISA reader at OD450 nm. […] (FIG. 1)

[15] = tested on: HCT116-wt; test: WST-1 cell viability, colorectal cancer cell line HCT116-wt; settings: 72 h
Procedure: as §1, §2

[16] = tested on: gastric cancer cells; test: Summary of cell viability, gastric cancer; settings: gastriccancer, 72 h, read-out: Inhibitory effect
Procedure: as §2

[17] = tested on: cervical cancer cells; test: Summary of cell viability, cervical cancer; settings: 72 h, read-out: Inhibitory effect
Procedure: as §2

[18] = tested on: A549 (lung adenocarcinoma); test: WST-1 cell viability, lung cancer cell line A549; settings: Homo sapiens
Procedure: as §1, §2

[19] = average of 4 tests, read-out: survival rate (inhibition effect), Average

Fc1ccc([C@@H]2CCNC[C@H]2COc2ccc3c(c2)OCO3)cc1 [Paroxetine]
viability at 10 µM ([1]; T-24, 72 h, T24, average of 4 tests, read-out: survival rate (inhibition effect), Average): 99.9% | viability at 10 µM ([1]; T-24, T24, 72 h, run 1-30 min, read-out: survival rate (inhibition effect)): 112% | viability at 10 µM ([1]; T-24, T24, 72 h, run 2-20 min, read-out: survival rate (inhibition effect)): 85.2% | viability at 10 µM ([1]; T-24, T24, 72 h, run 3-20 min, read-out: survival rate (inhibition effect)): 102% | viability at 10 µM ([1]; T-24, T24, 72 h, run 4-20 min, read-out: survival rate (inhibition effect)): 102% | viability at 10 µM [2]: 60.1% | viability at 10 µM ([3]; MKN-45, 72 h, MKN-45, average of 4 tests, read-out: survival rate (inhibition effect), Average): 40.5% | viability at 10 µM ([3]; MKN-45, MKN-45, 72 h, run 0510-10 min, read-out: survival rate (inhibition effect)): 36.2% | viability at 10 µM ([3]; MKN-45, MKN-45, 72 h, run 0512-10 min, read-out: survival rate (inhibition effect)): 52% | viability at 10 µM ([3]; MKN-45, MKN-45, 72 h, run 0515-10 min, read-out: survival rate (inhibition effect)): 37.8% | viability at 10 µM ([3]; MKN-45, MKN-45, 72 h, run 0517-10 min, read-out: survival rate (inhibition effect)): 36% | viability at 10 µM ([4]; NCI-H1650, 72 h, H1650, average of 4 tests, read-out: survival rate (inhibition effect), Average): 56.9% | viability at 10 µM ([4]; NCI-H1650, H1650, 72 h, run 1-10 min, read-out: survival rate (inhibition effect)): 66.4% | viability at 10 µM ([4]; NCI-H1650, H1650, 72 h, run 2-20 min, read-out: survival rate (inhibition effect)): 31.6% | viability at 10 µM ([4]; NCI-H1650, H1650, 72 h, run 3-20 min, read-out: survival rate (inhibition effect)): 58.2% | viability at 10 µM ([4]; NCI-H1650, H1650, 72 h, run 4-20 min, read-out: survival rate (inhibition effect)): 71.3% | viability at 10 µM [5, 19]: 63.8% | viability at 10 µM ([5]; run 0524-10 min, read-out: survival rate (inhibition effect)): 52.6% | viability at 10 µM ([5]; run 0526-10 min, read-out: survival rate (inhibition effect)): 78.3% | viability at 10 µM ([5]; run 0529-10 min, read-out: survival rate (inhibition effect)): 51% | viability at 10 µM ([5]; run 0531-10 min, read-out: survival rate (inhibition effect)): 73.4% | viability at 10 µM [6]: 77.4% | viability at 10 µM [7, 19]: 33.2% | viability at 10 µM ([7]; run 6-26-10 min, read-out: survival rate (inhibition effect)): 40.6% | viability at 10 µM ([7]; run 6-28-10 min, read-out: survival rate (inhibition effect)): 30.8% | viability at 10 µM ([7]; run 6-30-10 min, read-out: survival rate (inhibition effect)): 30.3% | viability at 10 µM ([7]; run 7-3-10 min, read-out: survival rate (inhibition effect)): 31.1% | viability at 10 µM ([7]; summary, osteosarcoma, read-out: Inhibitory effect): 33.2% | viability at 10 µM [8]: 86.5% | viability at 10 µM [9]: 46.5% | viability at 10 µM ([10]; BXPC-3, 72 h, BxPC-3, average of 4 tests, read-out: survival rate (inhibition effect), Average): 77.7% | viability at 10 µM ([10]; BXPC-3, BxPC-3, 72 h, run 3-4-30 min, read-out: survival rate (inhibition effect)): 87% | viability at 10 µM ([10]; BXPC-3, BxPC-3, 72 h, run 3-7-3-30 min, read-out: survival rate (inhibition effect)): 59.7% | viability at 10 µM ([10]; BXPC-3, BxPC-3, 72 h, run 3-7-4-30 min, read-out: survival rate (inhibition effect)): 93.7% | viability at 10 µM ([11]; ASPC1, 72 h, AsPC-1, average of 4 tests, read-out: survival rate (inhibition effect), Average): 77% | viability at 10 µM ([11]; ASPC1, AsPC-1, 72 h, run 1-4-30 min, read-out: survival rate (inhibition effect)): 72.5% | viability at 10 µM ([11]; ASPC1, AsPC-1, 72 h, run 1-7-3-30 min, read-out: survival rate (inhibition effect)): 78.8% | viability at 10 µM ([11]; ASPC1, AsPC-1, 72 h, run 1-7-4-30 min, read-out: survival rate (inhibition effect)): 87.3% | viability at 10 µM ([11]; ASPC1, AsPC-1, 72 h, run 1-7-7-30 min, read-out: survival rate (inhibition effect)): 69.3% | viability at 10 µM [12, 19]: 66.1% | viability at 10 µM ([12]; run 0612-20 min, read-out: survival rate (inhibition effect)): 69.8% | viability at 10 µM ([12]; run 0614-20 min, read-out: survival rate (inhibition effect)): 67.4% | viability at 10 µM ([12]; run 0616-20 min, read-out: survival rate (inhibition effect)): 66.2% | viability at 10 µM ([12]; run 0619-20 min, read-out: survival rate (inhibition effect)): 60.9% | viability at 10 µM ([13]; MCF7, 72 h, MCF7, average of 4 tests, read-out: survival rate (inhibition effect), Average): 51.2% | viability at 10 µM ([13]; MCF7, MCF7, 72 h, run 0612-10 min, read-out: survival rate (inhibition effect)): 47.7% | viability at 10 µM ([13]; MCF7, MCF7, 72 h, run 0614-10 min, read-out: survival rate (inhibition effect)): 50% | viability at 10 µM ([13]; MCF7, MCF7, 72 h, run 0616-10 min, read-out: survival rate (inhibition effect)): 55.4% | viability at 10 µM ([13]; MCF7, MCF7, 72 h, run 0619-10 min, read-out: survival rate (inhibition effect)): 51.6% | inhibitory effect on several cancer cell lines [14]: significant inhibitory effect | viability at 10 µM [15, 19]: 28.4% | viability at 10 µM ([15]; run 0602-30 min, read-out: survival rate (inhibition effect)): 23.8% | viability at 10 µM ([15]; run 0605-10 min, read-out: survival rate (inhibition effect)): 30.6% | viability at 10 µM ([15]; run 0607-10 min, read-out: survival rate (inhibition effect)): 29.7% | viability at 10 µM ([15]; run 0609-10 min, read-out: survival rate (inhibition effect)): 29.5% | viability at 10 µM [16]: 26.3% | viability at 10 µM [17]: 63.8% | viability at 10 µM ([18]; A549, 72 h, A549, average of 4 tests, read-out: survival rate (inhibition effect), Average): 92.4% | viability at 10 µM ([18]; A549, A549, 72 h, run 0524-10 min, read-out: survival rate (inhibition effect)): 84.2% | viability at 10 µM ([18]; A549, A549, 72 h, run 0526-10 min, read-out: survival rate (inhibition effect)): 127% | viability at 10 µM ([18]; A549, A549, 72 h, run 0529-10 min, read-out: survival rate (inhibition effect)): 54% | viability at 10 µM ([18]; A549, A549, 72 h, run 0531-10 min, read-out: survival rate (inhibition effect)): 104%
